The results in this text go back to patent publication US7659275B2, “Piperidinyl piperazine derivatives useful as inhibitors of chemokine receptors” (priority 2005, dated 2010).

Data set [1] has as its system HIV-1 YU-2 luciferase reporter virus in U87-CD4-CCR5 cells. The data set can be described thus: Luciferase Replication assay (HIV replication). The settings on record: Human immunodeficiency virus 1, U87/CD4/CCR5, 72 h, read-out: HIV Replication IC50 luciferase (nM, Yu-2). The class given is cell-based. The protocol: Luciferase Replication Assay:
Plasmids encoding the full length genome of HIV-1 pNL-4-Luc with the gp 120 V-3 loop replaced by the Bgl II fragment of HIV-1 ADA, YU-2 or HxB (ADA-Luc-FL, YU-2-Luc-FL and HxB-Luc-FL) were obtained from Dr. Susan Pontow (Washington University, St. Louis Mo.). Replication-competent luciferase reporter virus stocks were generated by transfection of plasmids into 293T cells using Superfect (Qiagen) or Mirus transfection reagents. Viral stocks were collected 48 hours following transfection and titered for luciferase production on U-87-CCR5 or CXCR4 cells. U87-CD4-CCR5 cells ([…]) were plated in 96-well cell culture plates and incubated overnight. Media was removed and replaced with 50 μl of fresh culture media (DMEM, 10% FCS) and 50 μl of compound diluted in culture medium. Cells were incubated with compound at 37° C. for 1 hour. The resultant supernatant was removed and replaced with 20 μl of media containing compound and infected with an equal volume of diluted or undiluted virus stock at 37° C. for 3-4 hours. The cells were washed once with DMEM, and 200 μl of media containing compound was added. The cultures were incubated for 3 days, the cells lysed in luciferase lysis buffer (Promega, Madison, Wis.) and transferred to Immulon plates (Dynex Technologies, Chantilly Va.). An equal volume of luciferase substrate (Promega, Madison Wis.) was added to lysates and the plates read immediately in a Wallac Luminometer. Fifty and ninety percent inhibitory concentrations were determined using GraphPad PRISM software.

Bounds are passed on as bounds.

The term IC50 denotes the point on the concentration scale where inhibition reaches its midpoint. For `COC[C@@H](c1ccc(C(F)(F)F)cc1)N1CCN(C2(C)CCN(C(=O)c3c(C)nn(OCc4ccccc4)c3C)CC2)C[C@@H]1C`, the IC50 in data set [1] was 0.4 nM. As a reminder, the melting point is the temperature, or range, at which the solid turns liquid. Turning to `Cc1nn(O)c(C)c1C(=O)N1CCC(C)(N2CCN([C@@H](c3cccc(F)c3)C3CCN(S(=O)(=O)C4CC4)CC3)[C@@H](C)C2)CC1`, the melting point was in the range of 214 to 215 °C. Also, in data set [1], the IC50 stood at 43 nM. Consider `CC[C@@H](c1ccc(C(F)(F)F)cc1)N1CCN(C2(C)CCN(C(=O)c3c(C)nn(O)c3C)CC2)C[C@@H]1C`, for which the IC50 in data set [1] was over 100 nM.

Regarding `COC[C@@H](c1ccc(C(F)(F)F)cc1)N1CCN(C2(C)CCN(C(=O)c3c(C)nn(O)c3C)CC2)C[C@@H]1C`, the IC50 in data set [1] is 8 nM.
